Assay results published in ChEMBL document CHEMBL2073922, “Cloning and characterization of the gene encoding the mouse peptide transporter PEPT2” (Biochem Biophys Res Commun, 2000).

How the values were obtained:
Assay type in all cases: functional, cell-based
Settings in all cases: Oocyte
[1] = molecular target: T1, Solute carrier family 15 member 2 (Mus musculus) (UniProt Q9ES07); test: TP_TRANSPORTER: uptake in Xenopus laevis oocytes
T1 sequence (whole entry): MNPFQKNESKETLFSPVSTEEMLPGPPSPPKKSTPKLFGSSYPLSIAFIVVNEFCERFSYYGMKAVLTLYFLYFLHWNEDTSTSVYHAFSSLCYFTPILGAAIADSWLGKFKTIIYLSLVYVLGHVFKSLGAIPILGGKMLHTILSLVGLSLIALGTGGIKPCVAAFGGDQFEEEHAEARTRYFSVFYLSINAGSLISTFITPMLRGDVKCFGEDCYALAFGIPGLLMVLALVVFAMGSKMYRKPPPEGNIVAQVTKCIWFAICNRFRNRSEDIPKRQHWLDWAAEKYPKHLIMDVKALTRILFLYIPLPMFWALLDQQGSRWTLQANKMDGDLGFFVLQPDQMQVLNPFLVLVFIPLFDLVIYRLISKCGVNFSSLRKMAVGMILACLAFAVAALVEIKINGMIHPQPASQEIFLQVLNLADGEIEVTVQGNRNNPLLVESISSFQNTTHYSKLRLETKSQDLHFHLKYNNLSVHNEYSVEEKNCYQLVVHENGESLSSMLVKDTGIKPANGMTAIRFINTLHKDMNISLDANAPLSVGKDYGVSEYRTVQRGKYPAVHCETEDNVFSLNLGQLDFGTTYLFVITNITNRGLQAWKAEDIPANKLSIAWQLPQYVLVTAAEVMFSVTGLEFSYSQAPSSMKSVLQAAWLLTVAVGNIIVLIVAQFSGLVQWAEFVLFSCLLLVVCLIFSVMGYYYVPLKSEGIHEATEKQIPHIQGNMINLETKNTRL

[2] = molecular target: T1, Solute carrier family 15 member 2 (Mus musculus); test: (§1) TP_TRANSPORTER: uptake (electrogenesis) in Xenopus laevis oocytes
[3] = molecular target: Solute carrier family 15 member 2 (Mus musculus) (UniProt Q9ES07); test: as §1; remark: listed apart in the source

Activity [2] | Compound | further results
– | NC(=O)CC[C@H](NC(=O)[C@@H](N)Cc1ccccc1)C(=O)O | Activity [1]: substrate [+]
substrate [+] | N[C@@H](CS)C(=O)NCC(=O)O | –
– | BETA-ENDORPHIN | Activity [3]: substrate [+]
substrate [+] | NCCC(=O)N[C@@H](Cc1c[nH]cn1)C(=O)O | –

Compound | Activity [2] | further results
NC(N)=NCCC[C@H](NC(=O)[C@@H](N)Cc1ccc(O)cc1)C(=O)O | substrate [+] | –
